Laboratory results published in US10632170B2, “Administration of compstatin to an individual for the treatment of a tumor” (The Trustees of the University of Pennsylvania, priority 2008, dated 2020).

Tests used:
[1] = tested on: MDSCs from spleens and tumors; test: ROS and RNS production in MDSCs after stimulation in vitro (H2DCFDA); format: cell-based, mouse; details: for ROS and RNS production in spleen MDSCs of C5aR-deficient mice: MDSCs from spleens of C5aR-deficient mice; for ROS and RNS production in tumor-associated MDSCs: either subpopulation, data not shown
Method: The oxidation sensitive dye 2′-7′-dichloro dihydrofluorescein diacetate (H2DCFDA) (Molecular Probes) was used for the measurement of ROS and RNS production in cells isolated from tumors or spleens. The excised tumors and spleens were mechanically disintegrated to obtain a single-cell suspension. Cells resuspended in DMEM were incubated with 2 μM of dye at 37° C. for 15 min. After washing with PBS, cells were stained for flow cytometry analysis as described above. MDSCs were distinguished from other cells present in the cell suspension as a viable CD45^+CD11b^+Gr-1^+ cell population, and the fluorescence intensity was estimated in the channel suitable for FITC according to the manufacturer's instruction. The amounts of ROS and RNS in cells were proportional to the intensity of fluorescence and were expressed as median fluorescence for gated populations. For some experiments, in addition to incubation with H2DCFDA, freshly isolated cells were simultaneously stimulated by 1, 10, or 100 nM of recombinant mouse C5a expressed as previously described (Strey et al., 2003, J. Exp. Med. 198:913-923) or 1 μM of phorbol myristate acetate (PMA; Sigma-Aldrich). Preliminary experiments have shown that stimulation of cells with 10 nM C5a induced the highest induction of ROS and RNS production.
To further verify the results obtained from these in vivo studies, MDSCs from spleens and tumors of wild-type mice were stimulated to produce ROS and RNS by incubating them with various concentrations of C5a in vitro. MDSCs isolated from C5aR-deficient mice were used as an additional control for these experiments. […] It was concluded that the unresponsiveness of tumor-associated MDSCs to in vitro C5a stimulation was a result of the strong stimulation of these cells for ROS and RNS production in vivo in the tumor microenvironment and the exhaustion of this system; therefore, further stimulation of these cells in vitro failed.

[2] = tested on: MDSCs obtained from tumors and spleens; test: CD11b expression in MDSCs after stimulation in vitro (flow cytometry); format: cell-based, mouse; details: for CD11b upregulation in C5aR-deficient MDSCs: FIG. 6A-6D
Method: Single-cell suspensions were pre-incubated with anti-mouse CD16/CD32 mAb (Fc block, 2.4G2; BD Pharmingen) to block Fcγ receptors, then incubated with primary antibody. Fluorochrome-conjugated mAbs against mouse CD3 (17A2), CD4 (L3T4), CD8 (53-6.7), CD11b (M1/70), CD25 (PC61), CD45 (30-F11), CD69 (H1.2F3) and Gr-1 (RB6-8C5), (all from BD Biosciences) were used according to the manufacturer's instructions. In order to determine C5aR cell-surface expression, cells were sequentially incubated with rabbit polyclonal anti-mouse C5aR (C1150-32, BD Biosciences) or rabbit isotype (BD Pharmingen, 550875) and FITC-conjugated anti-rabbit IgG (F0112, R&D Systems), or with rat anti-mouse C5aR (mAb clone 20/70 Hycult biotechnology b.v., distributor-Cell science Inc.) or rat isotype (BD Pharmingen, 553928) followed by FITC-conjugated anti-rat IgG (Zymed-Invitrogen). For some experiments cells were permeabilized with the use of fixation and perm/wash buffers (BD Biosciences) prior to C5aR staining. Stained cells were subjected to six-color flow cytometry on a FACSCanto flow cytometer (BD Biosciences) using FlowJo software (Tree Star Inc.).
The migration of PMN-MDSCs to tumors requires crossing of the endothelial barrier by MDSCs. Leukocytes, in order to leave the circulation and migrate to interstitial tissues, require the interaction of their integrins with adhesion molecules on endothelial cells. It was hypothesized that the same mechanisms apply to MDSCs migrating to tumor tissue. Since CD11b is the αm subunit of integrin CR3, which interacts with ICAM-1 expressed on endothelial cells during leukocyte extravasation, the changes in CD11b expression were evaluated in MDSCs obtained from tumors and spleens after C5a stimulation in vitro.

[3] = according to the manufacturer; cited from earlier work
[4] = tested on: TC-1 tumors; test: TC-1 syngeneic tumor growth in mice (tumor volumes); format: in vivo, mouse
Method: To establish TC-1 tumors, male and female mice 6-16 weeks of age were anesthetized and injected subcutaneously (s.c.) with 1×10^5 TC-1 cells in the right or left rear flank. […] Beginning about 2 weeks after cell injection, mice were anesthetized, and their tumors were measured with calipers every 2-4 days until the tumor size required sacrificing of the animals. Measurements were taken in two dimensions (length and width) because the depth of the tumor was difficult to assess in live animals. The depth of the tumor was therefore estimated based on the smaller (width) measurement, and the volume of the tumor was calculated using the formula: (length×width×depth)±2. One hour prior to sacrifice, 5-bromo-2′-deoxyuridine (BrdU; Sigma) was injected intraperitoneally (i.p.) into mice at a single dose of 50 mg/kg for further assessment of tumor or immune cell proliferation. […] Excised tumors were measured in three dimensions to obtain an accurate volume and then weighed. Tumors and spleens were cut into sections for cell isolation, histologic examination, or freezing.
Control mice in the experiments utilizing C5aR antagonist or Taxol were injected s.c., or i.p., respectively, with ˜400 μl PBS alone, or in some cases, s.c. with the cyclic hexapeptide AcF[OPdChaA(d)R] […] The pattern of the administration of this control peptide to mice followed that described for the C5aR antagonist.
The effect of genotype or treatment on tumor growth (FIGS. 1-4) was analyzed with two-way analysis of variance (ANOVA) using GraphPad Prism (GraphPad Software, Inc.); the Bonferroni post-test correction was applied to control for the occurrence of false-positives. […] A p value equal to or less than 0.05 was considered significant.

[5] = target: T1, C5aR (Mus musculus, UniProt P30993); details: cited from earlier work
T1 construct: endogenous in cells; host or cells: host cells of living C57BL/6J mice bearing TC-1 tumours (in vivo)
T1 sequence (P30993 1-351): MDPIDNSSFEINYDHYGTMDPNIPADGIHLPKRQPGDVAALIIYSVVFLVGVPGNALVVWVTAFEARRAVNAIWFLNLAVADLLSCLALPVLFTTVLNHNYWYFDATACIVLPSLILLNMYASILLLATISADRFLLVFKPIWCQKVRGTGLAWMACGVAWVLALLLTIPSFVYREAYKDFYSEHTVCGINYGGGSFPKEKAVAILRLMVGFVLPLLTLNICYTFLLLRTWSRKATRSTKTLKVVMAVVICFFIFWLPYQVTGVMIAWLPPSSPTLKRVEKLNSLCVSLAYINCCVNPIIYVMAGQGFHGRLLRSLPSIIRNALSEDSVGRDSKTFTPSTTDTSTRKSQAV

[6] = tested on: TC-1 tumors; test: Immune cell infiltration of tumors (immunofluorescent staining for CD8, CD11b); format: in vivo, mouse
Method: The deposition of C3 cleavage products in tumor tissue was detected using a rat anti-mouse C3 mAb (clone 2/11), as described previously (Mastellos et al, 2004, Mol. Immunol. 40:1213-1221). […] Therefore, the positive reactivity in the tissue is thought to be associated with the activation of the complement cascade and C3 cleavage. C1q and MBL deposition were evaluated with the use of a rat anti-mouse C1q mAb (Abeam, Inc.) and a polyclonal goat anti-mouse MBL (Santa Cruz Biotechnology, Inc.), respectively. These sections were co-stained with the use of biotinylated anti-mouse CD31 to visualize tumor vasculature. CD8^+ T cell and myeloid-origin cell infiltrations of tumors were analyzed using anti-mouse CD8 and anti-mouse CD11b, respectively. Isotypic rat IgGs were used as a negative control. Anti-CD31, anti-CD8 and anti-CD11b and isotype controls were purchased from BD Biosciences. Primary antibodies bound in tissue were detected with donkey anti-rat or anti-goat Cy2-conjugated antibodies (The Jackson Laboratory), except for anti-CD31, which was visualized with a streptavidin-rhodamine complex (BD Biosciences). Immunofluorescent staining was performed on frozen, 5-μm-thick sections. For detection of complement deposition, green and red fluorescence images were merged with the use of Spot software (Diagnostic instruments, Inc.). CD8^+ tumor infiltrates were quantified using ImageJ image analysis software (NIH), positive cells were counted in whole tissue sections and means were calculated. The magnitude of CD11b^+ infiltrates was assessed in a semi-quantitative manner because of the relatively low numbers of infiltrating cells. Scores from 0 to 5 were assigned to sections, according to the relative intensity of the infiltrates. In addition, the distribution of infiltrating cells was analyzed. All analyses were performed in a blinded fashion.

[7] = tested on: TC-1 tumors; test: Tumor cell proliferation, apoptosis and angiogenesis in end-point tumor specimens; format: in vivo, mouse; details: C5aR antagonist vs PBS
Method: The morphology of tumors and spleens was assessed by light microscopy (Olympus BX 60) of hematoxylin and eosin-stained 5-μm paraffin sections. To assess the number of cells in the S phase of the cell cycle, paraffin sections from tumors and spleens were stained with anti-BrdU. The presence of apoptotic cells in tumor sections was determined by staining for the activated caspase-3 site on cytokeratin 18. Both assays were performed as described previously (Markiewski et al., 2004, J. Immunol. 173:747-754). The microvascular density of engrafted tumors was evaluated by immunofluorescent staining for CD31 expression on endothelial cells in frozen sections. The bound biotinylated anti-CD31 (MEC 13.3-BD Biosciences) was visualized with a streptavidin-rhodamine complex (BD Biosciences). Fluorescence was evaluated by standard fluorescent microscopy (Olympus BX 60 microscope). BrdU incorporation into tumor cells and the microvascular density of tumors were quantified in 5-10 microscopic fields (400× for BrdU and 100× for microvascular density) with the use of ImageJ image analysis software (NIH, Bethesda, Md.), and mean values were calculated. Apoptosis was assessed in a semi-quantitative manner: Scores from 0 to 4 were assigned to sections, depending on the size of the area occupied by apoptotic cells. All analyses were performed in a blinded fashion.

[8] = tested on: arginase-1; test: Arginase-1 expression in tumor whole-cell extracts (immunoblot); format: in vivo, mouse; details: C5aR antagonist-treated vs control mice; without reaching statistical difference; FIG. 7F
Method: Whole-cell extracts were prepared from tumor tissue mechanically disrupted in lysis buffer (20 mM HEPES, pH 7.4, 0.2 mM EDTA, 420 mM NaCl, 1.5 mM MgCl2, 20% glycerol) treated with protease and phosphatase inhibitors (1 mM DTT, 0.1 mM PMSF, 0.1 mM Na3VO4, 1 mM NaF, 1 mM β-glycerophosphate, and 2 μg/ml each of antipain dihydrochloride, aprotinin, bestatin and leupeptin). For each protein sample, 40 μg was electrophoresed on a 12% polyacrylamide gel and transferred to a PVDF membrane. Membranes were incubated overnight at 4° C. with mouse monoclonal arginase I (8C9) antibody (Santa Cruz Biotechnology) or mouse monoclonal β-actin (AC-15) antibody (Abeam). Primary antibody binding was detected using HRP-conjugated anti-mouse antibody (Bio-Rad Laboratories, Inc.) and chemiluminescence (Amersham Pharmacia Biotech, Inc.). Protein loading was normalized according to the abundance of β-actin, with Ponceau S-stained membranes used for verification. Protein expression was quantified by densitometry using ImageQuant software (Molecular Dynamics).

CCCCCCCCCCCCCC(=O)O[C@@H]1[C@@H](C)[C@@]2(O)[C@@H](C=C(CO)C[C@]3(O)C(=O)C(C)=C[C@@H]23)[C@@H]2C(C)(C)[C@]12OC(C)=O [PMA, phorbol myristate acetate]
ROS and RNS production in spleen MDSCs of C5aR-deficient mice ([1]; FIG. 7H, 7I): brisk response | ROS and RNS production in tumor-associated MDSCs [1]: lack of an increase | CD11b upregulation in C5aR-deficient MDSCs [2]: response

CC(=O)O[C@H]1C(=O)[C@@]2(C)[C@H]([C@H](OC(=O)c3ccccc3)[C@]3(O)C[C@H](OC(=O)[C@H](O)[C@@H](NC(=O)c4ccccc4)c4ccccc4)C(C)=C1C3(C)C)[C@]1(OC(C)=O)CO[C@@H]1C[C@@H]2O [Taxol, Paclitaxel]
LD50 [3]: 128 mg/kg | suppressive effect on tumor growth compared with genetic C5aR deficiency ([4]; wild-type mice treated with Taxol vs C5aR-KO mice treated with PBS, FIG. 3C): similar

AcF[OPdChaA(d)R]
ability to block C5aR signaling ([5]; literature (Finch et al., 1999; Johswich et al., 2006)): does not have the ability to block C5aR signaling

Acetyl-Phe-[Orn-Pro-D-cyclohexylalanine-Trp-Arg] [C5aR antagonist]
location of CD11b+ cells in tumors ([6]; C5aR antagonist-treated mice, in control mice throughout the tumor sections): located only at the periphery of the tumors | number of cells expressing CD11b in tumor sections ([6]; C5aR antagonist-treated vs PBS-treated mice, FIG. 5F): lower | CD8+ cells infiltrating the tumor tissue ([6]; C5aR antagonist-treated vs control mice, FIG. 4A): heavily infiltrated by CD8^+ cells | tumor cell proliferation and apoptosis, and the extent of angiogenesis [7]: only minimal differences | arginase-1 expression in tumors [8]: only slightly lower | blockade of C5a-mediated effects in rodent disease models ([5]; literature (Kohl et al., 2006; Holland et al.)): specifically block C5a-mediated effects | further inhibition of tumor growth in C5aR-deficient mice ([4]; C5aR-deficient mice, in comparison to mice treated with control peptide): did not induce any further inhibition of tumor growth | tumor growth versus control mice treated with PBS ([4]; wild-type mice, 1 mg/kg s.c. every 2-3 days beginning 1 week after tumor cell injection, FIG. 3A): impaired tumor growth | inhibition of tumor growth compared with Taxol treatment ([4]; wild-type mice, C5aR antagonist 1 mg/kg s.c. vs Taxol 20 mg/kg i.p. once per week, FIG. 3A): comparable to that achieved by treatment with this anti-cancer therapeutic

B1: C5a: recombinant mouse C5a anaphylatoxin used to stimulate MDSCs in vitro (protein)
chain: NLHLLRQKIEEQAAKYKHSVPKKCCYDGARVNFYETCEERVARVTIGPLCIRAFNECCTIANKIRKESPHKPVQLGR
C5a concentration giving the highest induction of ROS and RNS production ([1]; 1, 10 or 100 nM tested, preliminary experiments): 10 nM | ROS and RNS production in spleen MDSCs of C5aR-deficient mice ([1]; FIG. 7H, 7I): did not respond | ROS and RNS production in spleen MDSCs of wild-type mice ([1]; both subpopulations, vs non-stimulated cells from the same mouse, FIG. 7H, 7I): increasing their ROS and RNS production | ROS and RNS production in tumor-associated MDSCs [1]: did not respond | CD11b upregulation in C5aR-deficient MDSCs [2]: lack of CD11b upregulation | expression of CD11b in MO-MDSCs ([2]; MO-MDSCs, 10 nM C5a, FIG. 6C, 6D): did not respond | expression of CD11b in wild-type PMN-MDSCs ([2]; PMN-MDSCs from spleens and tumors, 10 nM C5a, FIG. 6A, 6B): significant increase
